The values that follow come from ChEMBL document CHEMBL5291721, “A preclinical secondary pharmacology resource illuminates target-adverse drug reaction associations of marketed drugs” (Nat Commun, 2023).

In test [1] the target is Kappa-type opioid receptor (Homo sapiens, UniProt P41145).
In test [2] the target is T1, 5-hydroxytryptamine receptor 1A (Homo sapiens, UniProt P08908).
T1 sequence (P08908 whole entry): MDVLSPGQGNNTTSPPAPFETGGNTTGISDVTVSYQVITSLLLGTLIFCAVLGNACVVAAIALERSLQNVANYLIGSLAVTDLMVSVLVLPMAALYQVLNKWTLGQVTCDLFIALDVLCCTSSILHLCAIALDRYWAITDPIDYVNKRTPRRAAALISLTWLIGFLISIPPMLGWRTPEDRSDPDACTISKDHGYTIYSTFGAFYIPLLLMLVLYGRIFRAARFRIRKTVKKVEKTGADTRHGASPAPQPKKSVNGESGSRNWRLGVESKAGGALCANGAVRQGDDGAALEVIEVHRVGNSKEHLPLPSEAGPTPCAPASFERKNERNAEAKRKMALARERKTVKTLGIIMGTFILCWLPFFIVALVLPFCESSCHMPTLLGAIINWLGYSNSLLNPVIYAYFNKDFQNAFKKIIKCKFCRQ
The class given is functional, cell-based.

The target in test [3] is T2, Amine oxidase [flavin-containing] A (Homo sapiens, UniProt P21397).
T2 sequence (P21397 whole entry): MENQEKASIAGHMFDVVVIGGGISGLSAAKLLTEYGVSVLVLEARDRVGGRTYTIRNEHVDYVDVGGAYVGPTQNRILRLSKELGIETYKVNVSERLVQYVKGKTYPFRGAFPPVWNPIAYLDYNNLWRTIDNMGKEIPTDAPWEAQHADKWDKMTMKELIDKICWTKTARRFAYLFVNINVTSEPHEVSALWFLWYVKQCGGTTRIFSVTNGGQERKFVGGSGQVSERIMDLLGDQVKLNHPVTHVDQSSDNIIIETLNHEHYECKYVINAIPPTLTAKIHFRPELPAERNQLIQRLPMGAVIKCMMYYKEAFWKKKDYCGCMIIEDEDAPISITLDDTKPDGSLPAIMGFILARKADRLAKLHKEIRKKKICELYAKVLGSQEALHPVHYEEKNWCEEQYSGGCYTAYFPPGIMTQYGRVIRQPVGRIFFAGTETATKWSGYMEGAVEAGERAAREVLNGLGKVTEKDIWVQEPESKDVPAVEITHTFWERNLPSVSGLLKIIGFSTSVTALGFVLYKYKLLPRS
The class given is functional.

In test [4] the target is Growth hormone secretagogue receptor type 1 (Homo sapiens, UniProt Q92847).
The target in the next test is T3, Adenosine receptor A3 (Homo sapiens, UniProt P0DMS8).
T3 sequence (P0DMS8 whole entry): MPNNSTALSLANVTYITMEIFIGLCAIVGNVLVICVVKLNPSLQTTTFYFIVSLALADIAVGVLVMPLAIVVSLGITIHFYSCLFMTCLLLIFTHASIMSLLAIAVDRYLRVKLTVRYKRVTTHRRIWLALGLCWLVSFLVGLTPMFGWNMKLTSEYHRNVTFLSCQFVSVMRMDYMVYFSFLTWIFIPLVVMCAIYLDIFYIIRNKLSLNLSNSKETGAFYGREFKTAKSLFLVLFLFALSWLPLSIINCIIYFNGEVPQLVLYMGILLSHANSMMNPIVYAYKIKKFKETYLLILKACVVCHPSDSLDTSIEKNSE

Test [5] concerns the target T4, Alpha-2A adrenergic receptor (Homo sapiens, UniProt P08913).
T4 sequence (P08913 whole entry): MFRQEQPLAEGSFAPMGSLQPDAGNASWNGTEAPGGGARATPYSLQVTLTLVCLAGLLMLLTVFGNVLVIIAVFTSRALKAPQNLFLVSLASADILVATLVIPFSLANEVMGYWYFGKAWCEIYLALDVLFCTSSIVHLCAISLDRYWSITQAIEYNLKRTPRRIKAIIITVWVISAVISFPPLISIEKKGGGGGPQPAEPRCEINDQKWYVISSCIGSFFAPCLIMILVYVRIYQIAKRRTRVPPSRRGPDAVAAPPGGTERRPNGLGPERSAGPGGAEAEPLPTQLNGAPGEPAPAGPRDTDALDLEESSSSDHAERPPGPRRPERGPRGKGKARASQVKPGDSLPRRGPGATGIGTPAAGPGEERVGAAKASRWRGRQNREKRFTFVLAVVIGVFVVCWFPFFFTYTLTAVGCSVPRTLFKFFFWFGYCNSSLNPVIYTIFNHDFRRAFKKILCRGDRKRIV
The class given is functional, cell-based.

In test [6] the target is Glutamate receptor ionotropic, NMDA 1 (Rattus norvegicus, UniProt P35439).
For test [7], the target named is Neuronal acetylcholine receptor subunit alpha-4 (Homo sapiens, UniProt P43681).

A word on the AC50: it is the concentration at which the activity in the assay is half-maximal.
Note: assay procedure not described here.

Chain of Kappa-type opioid receptor (P41145 whole entry): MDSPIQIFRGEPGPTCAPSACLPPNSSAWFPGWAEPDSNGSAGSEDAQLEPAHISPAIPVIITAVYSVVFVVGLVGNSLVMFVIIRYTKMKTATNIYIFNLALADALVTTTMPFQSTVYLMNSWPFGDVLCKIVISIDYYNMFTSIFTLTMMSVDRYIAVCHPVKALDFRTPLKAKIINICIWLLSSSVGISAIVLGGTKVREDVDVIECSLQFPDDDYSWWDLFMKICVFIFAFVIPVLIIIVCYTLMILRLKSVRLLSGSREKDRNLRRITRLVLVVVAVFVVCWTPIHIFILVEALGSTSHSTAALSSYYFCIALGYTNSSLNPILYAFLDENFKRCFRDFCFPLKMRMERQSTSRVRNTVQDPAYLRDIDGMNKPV
Chain of Growth hormone secretagogue receptor type 1 (Q92847 whole entry): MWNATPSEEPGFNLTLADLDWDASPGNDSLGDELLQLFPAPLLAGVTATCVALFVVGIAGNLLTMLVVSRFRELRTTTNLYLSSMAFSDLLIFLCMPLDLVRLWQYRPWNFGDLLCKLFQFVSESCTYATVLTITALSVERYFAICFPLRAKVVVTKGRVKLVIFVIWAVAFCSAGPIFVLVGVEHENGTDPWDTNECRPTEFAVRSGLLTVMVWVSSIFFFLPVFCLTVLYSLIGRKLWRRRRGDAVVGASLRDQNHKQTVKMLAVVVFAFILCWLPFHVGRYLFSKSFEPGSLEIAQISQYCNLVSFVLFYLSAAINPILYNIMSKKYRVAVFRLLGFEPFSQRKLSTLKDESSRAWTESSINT
Chain of Neuronal acetylcholine receptor subunit alpha-4 (P43681 whole entry): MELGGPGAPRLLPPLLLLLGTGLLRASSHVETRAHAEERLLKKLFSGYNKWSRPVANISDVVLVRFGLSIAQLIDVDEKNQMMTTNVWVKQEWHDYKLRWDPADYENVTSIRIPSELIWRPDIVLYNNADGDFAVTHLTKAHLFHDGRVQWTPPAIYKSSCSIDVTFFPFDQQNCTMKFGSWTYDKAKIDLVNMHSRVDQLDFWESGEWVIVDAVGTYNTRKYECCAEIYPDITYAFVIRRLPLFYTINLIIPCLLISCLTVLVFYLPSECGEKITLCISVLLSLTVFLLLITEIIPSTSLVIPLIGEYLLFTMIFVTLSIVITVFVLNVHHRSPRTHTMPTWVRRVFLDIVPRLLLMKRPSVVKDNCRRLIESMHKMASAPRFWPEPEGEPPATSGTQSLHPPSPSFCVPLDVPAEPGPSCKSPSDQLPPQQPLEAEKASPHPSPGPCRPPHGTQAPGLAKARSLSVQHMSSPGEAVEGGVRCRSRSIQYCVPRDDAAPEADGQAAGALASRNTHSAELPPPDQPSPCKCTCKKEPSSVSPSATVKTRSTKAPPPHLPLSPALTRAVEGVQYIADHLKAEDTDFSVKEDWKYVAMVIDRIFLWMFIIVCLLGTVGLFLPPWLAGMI

For `C[N+]1(C)CCC(=C(c2ccccc2)c2ccccc2)CC1`, the AC50 in test [1] is over 10 µM; in test [2] it was over 10 µM; in test [3] it was over 10 µM; in test [4] it was over 30 µM; at Adenosine receptor A3, over 30 µM; in test [5], over 10 µM. Moreover, the half-maximal activity concentration (AC50) in test [6] is over 10 µM; in test [7] it was 16.2 µM.
Consider `C[N+](C)(C)CCOP(=O)([O-])OC[C@H](O)CO`, for which the AC50 (in test [1]; in test [2]; in test [3]; in test [4]; at Adenosine receptor A3; in test [5]) was over 30 µM throughout. In addition, the AC50 in test [6] and in test [7] was over 30 µM throughout.
Regarding `CN(C)Cc1nnc2n1-c1ccc(Cl)cc1C(c1ccccc1)=NC2` [ADINAZOLAM], the AC50 was 3.29 µM in test [1]; over 10 µM in test [2]; over 10 µM in test [3]; over 10 µM in test [4]; over 10 µM at Adenosine receptor A3; over 10 µM in test [5]. In addition, the AC50 in test [6] and in test [7] was over 10 µM in each case.
On to `CN(C)C/C=C/C(=O)Nc1cc2c(Nc3ccc(F)c(Cl)c3)ncnc2cc1O[C@H]1CCOC1` [AFATINIB], for which the AC50 (in test [1]; in test [2]; in test [3]; in test [4]; on Adenosine receptor A3; in test [6]) was over 30 µM throughout. The compound also showed an AC50 in test [7] of over 30 µM.
Turning to `Cc1ccccc1-n1c(CF)nc2ccc(N)cc2c1=O` [AFLOQUALONE], the concentration at half-maximal activity (AC50) in test [1] was over 10 µM; in test [2], over 10 µM; in test [3] it was over 10 µM; in test [4] it was over 30 µM; at Adenosine receptor A3, over 30 µM; in test [5], over 10 µM. The results for the AC50 in test [6] and in test [7] were over 10 µM and over 30 µM, respectively.
In the case of `CCC1(c2ccc(N)cc2)CCC(=O)NC1=O` (stereo unspecified) [AMINOGLUTETHIMIDE], the AC50 (in test [1]; in test [3]; in test [4]; on Adenosine receptor A3; in test [5]; in test [6]) was over 30 µM each time. In test [7], the AC50 was over 30 µM.
In the case of `CC1=C(C(=O)OC(C)C)C(c2cccc([N+](=O)[O-])c2)C(C(=O)OC2CN(C(c3ccccc3)c3ccccc3)C2)=C(N)N1` (stereo unspecified) [AZELNIDIPINE], the AC50 in test [1] is over 30 µM; in test [3] it was over 30 µM; in test [4], over 30 µM; at Adenosine receptor A3, 2.2 µM; in test [5], over 30 µM; in test [6], over 30 µM. In addition, the AC50 in test [7] is over 30 µM.
Turning to `CC(Cc1cccc(C(F)(F)F)c1)NCCOC(=O)c1ccccc1` (stereo unspecified) [BENFLUOREX], the AC50 in test [1] was over 30 µM; in test [3], over 30 µM; in test [4], 28 µM; on Adenosine receptor A3 it was 28 µM; in test [6], over 30 µM; in test [7], over 30 µM.
As for `CCOC(=O)c1ccc(N)cc1` [BENZOCAINE], the half-maximal activity concentration (AC50) in test [1] was over 10 µM; in test [2] it was over 10 µM; in test [3] it was 19 µM; in test [4] it was over 10 µM; at Adenosine receptor A3, over 10 µM; in test [5], over 10 µM. Moreover, the AC50 in test [6] and in test [7] was over 10 µM each time.
In the case of `CN[C@]1(c2ccccc2Cl)CCCCC1=O` [ESKETAMINE], the AC50 was 13 µM in test [1]; over 30 µM in test [3]; over 30 µM in test [4]; over 30 µM on Adenosine receptor A3; over 30 µM in test [5]; 0.79 µM in test [6]. The compound further came in with an AC50 in test [7] of over 30 µM.
Take `CNCCc1ccc(OC(=O)C(C)C)c(OC(=O)C(C)C)c1` [IBOPAMINE]: the half-maximal activity concentration (AC50) (in test [1]; in test [2]; in test [3]; in test [4]; at Adenosine receptor A3; in test [6]) was over 30 µM each time. Also, the concentration at half-maximal activity (AC50) in test [7] is over 30 µM.
With `CN(C)CCCN1c2ccccc2CCc2ccccc21` [IMIPRAMINE], the AC50 is over 10 µM in test [2]; over 10 µM in test [3]; over 30 µM in test [4]; 30.8 µM on Adenosine receptor A3; over 10 µM in test [5].
For `CCOC(=O)C1=C(C)NC(C)=C(C(=O)OCC)C1c1ccccc1/C=C/C(=O)OC(C)(C)C` [LACIDIPINE], the AC50 in test [1] is 8.6 µM; in test [3], over 30 µM; in test [4], over 30 µM; on Adenosine receptor A3 it was 15 µM; in test [5] it was over 30 µM; in test [6] it was over 30 µM. The AC50 in test [7] is over 30 µM.
Consider `O=C1c2cccc3c2[C@H](CCC3)CN1[C@@H]1CN2CCC1CC2` [PALONOSETRON], for which the AC50 was over 30 µM in test [1]; over 30 µM in test [3]; over 30 µM in test [4]; over 30 µM at Adenosine receptor A3; 25 µM in test [5]; over 30 µM in test [6]. In test [7], this compound returned an AC50 of 38.5 µM.
As to `Cc1cccc(C)c1NC(=O)CC12CCCN1CCC2` [PILSICAINIDE], the AC50 (in test [1]; in test [3]; in test [4]; at Adenosine receptor A3; in test [5]; in test [6]) was over 30 µM each time. This compound also returned an AC50 in test [7] of over 30 µM.
`CC(C)c1cccc(C(C)C)c1O` [PROPOFOL]: the AC50 (in test [2]; in test [3]; in test [4]; on Adenosine receptor A3; in test [5]; in test [7]) was over 30 µM each time.
`CCCN1CC(NS(=O)(=O)N(CC)CC)CC2Cc3c(O)cccc3CC21` (stereo unspecified) [QUINAGOLIDE]: the concentration at half-maximal activity (AC50) in test [1] was 1.7 µM; in test [3], over 30 µM; in test [4], over 30 µM; on Adenosine receptor A3, over 30 µM; in test [5], over 30 µM; in test [6], over 30 µM. The compound also returned an AC50 in test [7] of over 30 µM.
For the compound `C[C@]12CCC(=O)C[C@@H]1CC[C@@H]1[C@@H]2CC[C@]2(C)[C@@H](O)CC[C@@H]12` [STANOLONE], the AC50 (in test [1]; in test [3]; in test [4]; on Adenosine receptor A3; in test [5]; in test [6]) was over 30 µM throughout. The compound further had an AC50 in test [7] of over 30 µM.
Regarding `O=C1OC(OC(=O)c2cccnc2Nc2cccc(C(F)(F)F)c2)c2ccccc21` (stereo unspecified) [TALNIFLUMATE], the AC50 (in test [1]; in test [2]; in test [3]; in test [4]; at Adenosine receptor A3; in test [6]) was over 30 µM in each case. In test [7], this compound yielded an AC50 of over 30 µM.
On to `CCOC(=O)c1c(CSc2ccccc2)n(C)c2cc(Br)c(O)c(CN(C)C)c12` [UMIFENOVIR], for which the AC50 (in test [1]; in test [3]; in test [4]; at Adenosine receptor A3; in test [5]; in test [6]) was over 30 µM in each case. The AC50 in test [7] was over 30 µM.
